The target of test [1] is CDK7/cyclinH/MAT1 complex (Homo sapiens, UniProt P50613). The test is described as follows: In-vitro enzymatic inhibitory activity testing, CDK7 inhibition assay (Caliper EZ Reader II). The test is classed as biochemical. Conditions: CDK7/cyclinH/MAT1 6 nM, 180 min at 27° C. A digest of the protocol:
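Enzyme preincubated 10 min with compound, then peptide substrate plus ATP added in 80 mM MES pH 6.5, 10 mM MgCl2 buffer; 180 min at 27 °C, stopped with EDTA.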

Another test concerns the target CDK2/cyclinE1 complex (Homo sapiens, UniProt P24941). Put plainly: In-vitro enzymatic inhibitory activity testing, CDK2 inhibition assay (Caliper EZ Reader II). The class given is biochemical. Conditions: CDK2/cyclinE1 0.5 nM, 180 min at 27° C. Here is the method: CDK12/CyclinK was diluted in an assay buffer (80 mM MES PH 6.5, 0.01% Tween 20, 50 ug/mL BSA, 10 mM MgCl2) to afford a corresponding enzyme solution with the 2.4 concentration. […] A CDK9/cyclinT1 complex (8 nM) and a “5-FAM-CDK9tide” peptide substrate (2 IM, synthetic fluorophore-labeled peptide with the following sequence: 5-FAM-GSRTPMY-NH2, wherein 5-FAM was as defined above and NH2 represented C-terminal amide) were used for a CDK9 inhibition assay. […] A CDK2/cyclinE1 complex (0.5 nM) and “5-FAM-CDK7tide” (2 μM) as defined above were used for CDK2 inhibition assay.
(§1) A reaction mixture was analyzed on Caliper EZ Reader II by electrophoretic separation of a fluorogenic substrate and a phosphorylated product. Data were calculated by using GraphPad Prism version 6.0, and IC50 values were adjusted and obtained by using a nonlinear regression model of a dose response curve.

A further test addresses CDK9/cyclinT1 complex (Homo sapiens, UniProt P50750). Put plainly: In-vitro enzymatic inhibitory activity testing, CDK9 inhibition assay (Caliper EZ Reader II). The test is classed as biochemical. Conditions: CDK9/cyclinT1 8 nM, 180 min at 27° C. Here is the method:
CDK12/CyclinK was diluted in an assay buffer (80 mM MES PH 6.5, 0.01% Tween 20, 50 ug/mL BSA, 10 mM MgCl2) to afford a corresponding enzyme solution with the 2.4 concentration. A compound was dissolved in dimethyl sulfoxide (DMSO) at a concentration of 10 mM. […] 2 ul of a test compound solution was mixed with 5 ul of the enzyme solution; after incubation for 10 min, 5 ul of the polypeptide substrate and ATP mixed solution was added; incubation was carried out for 180 min at 27° C.; and then, the reaction was terminated by adding 4 uL of EDTA with a concentration of 120 mM to each sample. […] A CDK9/cyclinT1 complex (8 nM) and a “5-FAM-CDK9tide” peptide substrate (2 IM, synthetic fluorophore-labeled peptide with the following sequence: 5-FAM-GSRTPMY-NH2, wherein 5-FAM was as defined above and NH2 represented C-terminal amide) were used for a CDK9 inhibition assay. […] A CDK2/cyclinE1 complex (0.5 nM) and “5-FAM-CDK7tide” (2 μM) as defined above were used for CDK2 inhibition assay.
as §1

Test [2] deals with T1, CDK12 (aa686-1082)/cyclinK complex (Homo sapiens, UniProt Q9NYV4).
T1 construct: A CDK12 (aa686-1082)/cyclinK complex (50 nM)
Put plainly: In-vitro enzymatic inhibitory activity testing, CDK12 inhibition assay (Caliper EZ Reader II). The test is classed as biochemical. Conditions: CDK12/cyclinK 50 nM, 180 min at 27° C.; read-out: CDK12 IC50. Here is the method: An assay was carried out in a U-bottom 384-well plate (coming, 4512#), and the reaction temperature was 27° C. CDK7/CyclinH was diluted in an assay buffer (20 mM MES PH 6.75, 0.01% Tween 20, 50 ug/mL BSA, 6 mM MgCl2) to afford a corresponding enzyme solution with the 2.4× concentration. CDK2/CyclinE1 was diluted in an assay buffer (20 mM MES PH 6.75, 0.01% Tween 20, 50 ug/mL BSA, 6 mM MgCl2) to afford a corresponding enzyme solution with the 2.4× concentration. CDK9/CyclinT1 was diluted in an assay buffer (20 mM MES PH 6.75, 0.01% Tween 20, 50 ug/mL BSA, 10 mM MgCl2) to afford a corresponding enzyme solution with the 2.4× concentration. CDK12/CyclinK was diluted in an assay buffer (80 mM MES PH 6.5, 0.01% Tween 20, 50 ug/mL BSA, 10 mM MgCl2) to afford a corresponding enzyme solution with the 2.4 concentration. A compound was dissolved in dimethyl sulfoxide (DMSO) at a concentration of 10 mM. During use, the compound was diluted with DMSO into 10 concentration gradients from 25 nM to 500 uM, and respectively diluted by 8.3 folds in the assay buffer to afford a compound solution with a 6× concentration. A polypeptide substrate and ATP were diluted in the assay buffer to afford a polypeptide substrate and ATP mixed solution with a 2.4× concentration. 2 ul of a test compound solution was mixed with 5 ul of the enzyme solution; after incubation for 10 min, 5 ul of the polypeptide substrate and ATP mixed solution was added; incubation was carried out for 180 min at 27° C.; and then, the reaction was terminated by adding 4 uL of EDTA with a concentration of 120 mM to each sample. […]. Specifically, a CDK7/cyclinH/MAT1 complex (6 nM) and a “5-FAMCD K 7 tide” peptide substrate (2 μM, synthetic fluorophore-labeled peptide with the following sequence: 5-FAM-[…], wherein “5-FAM” refers to 5-carboxyfluorescein) were used for a CDK7 inhibition assay. A CDK9/cyclinT1 complex (8 nM) and a “5-FAM-CDK9tide” peptide substrate (2 IM, synthetic fluorophore-labeled peptide with the following sequence: 5-FAM-GSRTPMY-NH2, wherein 5-FAM was as defined above and NH2 represented C-terminal amide) were used for a CDK9 inhibition assay. A CDK12 (aa686-1082)/cyclinK complex (50 nM) and “5-FAM-CDK9tide” (2 μM) as defined above were used for a CDK12 inhibition assay. A CDK2/cyclinE1 complex (0.5 nM) and “5-FAM-CDK7tide” (2 μM) as defined above were used for CDK2 inhibition assay.
as §1

Test [3] relates to human breast cancer cells HCC70. The test is described as follows: Cell biological activity detection (CyQuant, 72 hours), HCC70. The class given is cell-based. To be noted: incubation for 72 hours. Here is the method: (§2) A2780 and HCC70 cells were subjected to trypsin digestion treatment, and cell suspensions were respectively transferred to 15 mL centrifuge tubes and centrifuged for 5 min at […]) rpm; supernatant was discarded, and resuspension was carried out in a fresh medium (RPMI 1640+10% FBS), after counting, cells were seeded into a 384-well plate at 2000/well (50 μL of 1640+10% FBS medium was added to the 2nd column and the 23rd column of the 384-well plate, and 50 μL of DPBS was added to the surrounding wells). Incubation was carried out overnight in an incubator (37° C., 5% CO2).
(§3) The compound was added to the well plates the next day. The compound had the highest concentration of 10 μM and was diluted at 1:4, and there were a total of 9 concentrations; and a positive compound Paclitaxel had the highest concentration of 1 μM and was diluted at 1:3, and there were a total of 9 concentrations. The DMSO content in each well was unified to 0.2%. The cell plates were centrifuged for 30 seconds at 800 rpm and placed in an incubator (37° C., 5% CO2) for incubation for 72 hours. On the fourth day, a Cyquant reagent (3×) was formulated according to kit instructions, and formulation was carried out for each 384-well plate according to the following proportions: DPBS 11.568 mL, CyQuant®? Direct nucleic acid stain 72 μL, and CyQuant® Direct background suppressor 360 μL. After uniform mixing, the reagent was placed at room temperature for further use. The cell plates were taken out and equilibrated for 30 min at room temperature, and 25 μL of the Cyquant reagent (3×) per well was dispensed into the cells of the 384-well plates by Multi-drop, and incubation was carried out for more than 60 minutes at 37° C. Acumen plate reading (Acumen setting: an excitation wavelength of 488 nm). IC50 results were analyzed by XLFIT5 from IDBS Company.

The test system of another test is ovarian cancer A2780. Put plainly: Cell biological activity detection (CyQuant, 72 hours), A2780. The class given is cell-based, human. Conditions: A2780 cells, incubation for 72 hours. Here is the method: as §2, §3

A value given as a limit tells only on which side of the number the result lay.

Broadly, the IC50 is the concentration at which inhibition is half-maximal.

T1 sequence (Q9NYV4 686-1082, species assumed): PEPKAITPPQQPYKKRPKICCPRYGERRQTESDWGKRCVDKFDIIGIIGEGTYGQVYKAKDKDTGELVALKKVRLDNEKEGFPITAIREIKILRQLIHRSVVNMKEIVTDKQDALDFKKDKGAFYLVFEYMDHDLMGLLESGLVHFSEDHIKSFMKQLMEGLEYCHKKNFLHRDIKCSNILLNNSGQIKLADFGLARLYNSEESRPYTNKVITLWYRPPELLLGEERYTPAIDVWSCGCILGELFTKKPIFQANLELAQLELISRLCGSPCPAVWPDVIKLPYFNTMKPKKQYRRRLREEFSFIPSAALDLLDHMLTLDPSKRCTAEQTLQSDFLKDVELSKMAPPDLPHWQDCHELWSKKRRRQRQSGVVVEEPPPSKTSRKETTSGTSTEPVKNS
T1 sequence (O75909 whole entry partner, species assumed, the tested form may be a part): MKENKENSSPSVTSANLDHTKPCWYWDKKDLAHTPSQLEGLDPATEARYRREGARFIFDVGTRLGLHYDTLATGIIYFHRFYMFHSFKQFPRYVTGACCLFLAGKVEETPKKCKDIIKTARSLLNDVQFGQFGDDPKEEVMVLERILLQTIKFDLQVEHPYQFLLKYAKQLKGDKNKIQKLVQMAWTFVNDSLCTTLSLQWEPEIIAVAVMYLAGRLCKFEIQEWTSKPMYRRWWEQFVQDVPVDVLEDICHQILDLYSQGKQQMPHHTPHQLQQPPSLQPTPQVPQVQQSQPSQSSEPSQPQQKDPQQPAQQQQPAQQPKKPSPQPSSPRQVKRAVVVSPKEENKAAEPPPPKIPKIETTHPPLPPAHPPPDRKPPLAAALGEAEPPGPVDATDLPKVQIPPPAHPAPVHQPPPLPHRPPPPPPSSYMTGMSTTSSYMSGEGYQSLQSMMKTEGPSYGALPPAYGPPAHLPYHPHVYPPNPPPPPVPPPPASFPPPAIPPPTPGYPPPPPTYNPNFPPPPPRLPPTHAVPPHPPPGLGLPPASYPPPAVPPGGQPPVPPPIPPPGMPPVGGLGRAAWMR
CDK9/cyclinT1 complex, sequence (P50750 whole entry, species assumed): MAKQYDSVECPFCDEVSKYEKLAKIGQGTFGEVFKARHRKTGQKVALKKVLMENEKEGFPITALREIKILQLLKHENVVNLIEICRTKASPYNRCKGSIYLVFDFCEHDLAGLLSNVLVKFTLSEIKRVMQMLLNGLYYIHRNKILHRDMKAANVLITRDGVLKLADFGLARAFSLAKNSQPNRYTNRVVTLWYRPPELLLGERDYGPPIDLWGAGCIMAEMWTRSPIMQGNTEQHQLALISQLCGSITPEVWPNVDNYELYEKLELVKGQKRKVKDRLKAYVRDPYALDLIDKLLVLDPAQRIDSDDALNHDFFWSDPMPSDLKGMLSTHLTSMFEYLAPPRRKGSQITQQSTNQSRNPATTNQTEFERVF
CDK9/cyclinT1 complex, sequence (O60563 whole entry partner, species assumed): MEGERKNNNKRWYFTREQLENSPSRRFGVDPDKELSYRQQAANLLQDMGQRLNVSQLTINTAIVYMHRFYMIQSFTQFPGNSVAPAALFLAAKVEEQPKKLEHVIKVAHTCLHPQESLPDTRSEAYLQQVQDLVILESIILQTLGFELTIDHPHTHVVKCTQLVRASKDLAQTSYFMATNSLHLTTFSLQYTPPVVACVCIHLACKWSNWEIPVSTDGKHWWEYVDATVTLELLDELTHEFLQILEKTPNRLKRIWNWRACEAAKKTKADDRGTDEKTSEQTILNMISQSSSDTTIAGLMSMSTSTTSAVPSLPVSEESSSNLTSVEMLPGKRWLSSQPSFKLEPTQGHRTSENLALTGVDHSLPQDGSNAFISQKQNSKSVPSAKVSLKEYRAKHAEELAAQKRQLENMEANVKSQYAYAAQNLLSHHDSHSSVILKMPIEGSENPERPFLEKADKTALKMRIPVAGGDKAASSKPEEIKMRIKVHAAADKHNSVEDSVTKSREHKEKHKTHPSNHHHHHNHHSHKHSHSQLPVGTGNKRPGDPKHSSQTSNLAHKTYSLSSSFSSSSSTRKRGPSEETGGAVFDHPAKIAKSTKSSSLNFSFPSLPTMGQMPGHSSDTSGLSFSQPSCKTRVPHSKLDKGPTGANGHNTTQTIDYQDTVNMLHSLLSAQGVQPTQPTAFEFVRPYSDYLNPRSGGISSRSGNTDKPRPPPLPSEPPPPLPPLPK
CDK7/cyclinH/MAT1 complex, sequence (P50613 whole entry, species assumed): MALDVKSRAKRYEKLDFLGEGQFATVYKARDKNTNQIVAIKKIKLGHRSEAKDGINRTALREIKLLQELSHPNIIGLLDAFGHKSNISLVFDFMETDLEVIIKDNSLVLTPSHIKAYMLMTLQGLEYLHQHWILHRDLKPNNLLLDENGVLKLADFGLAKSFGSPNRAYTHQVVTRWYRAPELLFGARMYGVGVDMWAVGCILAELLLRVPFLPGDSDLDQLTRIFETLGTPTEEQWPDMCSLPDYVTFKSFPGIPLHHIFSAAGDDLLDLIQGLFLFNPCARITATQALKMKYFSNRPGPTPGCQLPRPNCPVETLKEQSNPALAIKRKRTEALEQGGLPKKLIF
CDK7/cyclinH/MAT1 complex, sequence (P51946 whole entry partner, species assumed): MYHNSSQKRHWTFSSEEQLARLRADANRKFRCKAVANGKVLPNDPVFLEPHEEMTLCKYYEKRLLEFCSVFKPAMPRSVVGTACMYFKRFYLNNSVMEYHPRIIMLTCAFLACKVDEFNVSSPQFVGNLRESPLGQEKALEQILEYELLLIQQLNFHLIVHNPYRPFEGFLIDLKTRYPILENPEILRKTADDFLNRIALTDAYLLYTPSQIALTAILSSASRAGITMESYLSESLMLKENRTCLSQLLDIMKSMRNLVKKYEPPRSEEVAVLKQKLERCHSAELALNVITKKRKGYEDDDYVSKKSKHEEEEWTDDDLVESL
CDK7/cyclinH/MAT1 complex, sequence (P51948 whole entry partner, species assumed): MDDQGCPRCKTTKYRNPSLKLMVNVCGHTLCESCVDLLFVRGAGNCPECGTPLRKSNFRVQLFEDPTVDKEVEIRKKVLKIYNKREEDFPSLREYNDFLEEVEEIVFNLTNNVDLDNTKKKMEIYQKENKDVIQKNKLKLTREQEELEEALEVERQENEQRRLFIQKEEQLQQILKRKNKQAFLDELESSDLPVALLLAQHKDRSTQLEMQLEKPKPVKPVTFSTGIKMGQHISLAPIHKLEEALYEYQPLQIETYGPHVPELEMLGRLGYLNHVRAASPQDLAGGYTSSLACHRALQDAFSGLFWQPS

As for `FC(F)(F)c1cnc(NC2C3CNCC32)nc1-c1c[nH]c2nc(N3CCOCC3)ccc12` (stereo not drawn) [Compound 46, N-(4-(6-morpholinyl-1H-pyrrolo[2,3-b]pyridin-3-yl)-5-(trifluoromethyl)pyrimidin-2-yl)-3-azabicyclo[3.1.0]n-hexan-6-amine], the IC50 in test [1] was 0.2 to 5 µM; against CDK2/cyclinE1 complex, 5 to 50 µM; at CDK9/cyclinT1 complex, 5 to 50 µM; in test [2] it was 5 to 50 µM; in test [3] (Homo sapiens, HCC70, 72 h), 0.2 to 5 µM; in the test with ovarian cancer A2780 (Homo sapiens, A2780, 72 h), 0.2 to 5 µM.
Turning to `CP(C)(=O)c1cccc2c(-c3nc(Nc4cn[nH]c4)ncc3C(F)(F)F)c[nH]c12` [Compound 84, (3-(2-((1H-pyrazol-4-yl)amino)-5-(trifluoromethyl)pyrimidin-4-yl)-1H-indole-7-yl)dimethylphosphine oxide], the IC50 in test [1] was below 0.02 µM; against CDK2/cyclinE1 complex, 0.02 to 0.2 µM; against CDK9/cyclinT1 complex, 5 to 50 µM; in test [2], 0.2 to 5 µM; in test [3] (Homo sapiens, HCC70, 72 h), below 0.02 µM; in the test with ovarian cancer A2780 (Homo sapiens, A2780, 72 h), below 0.02 µM.
As to `CC(C)C(O)CNc1ncc(C(F)(F)F)c(-c2c[nH]c3c(P(C)(C)=O)cccc23)n1` (stereo not drawn) [Compound 162, (3-(2-((2-hydroxy-3-methylbutyl)amino)-5-(trifluoromethyl)pyrimidin-4-yl)-1H-indole-7-yl)dimethylphosphine oxide], the IC50 is 0.02 to 0.2 µM in test [1]; 5 to 50 µM against CDK2/cyclinE1 complex; above 50 µM against CDK9/cyclinT1 complex; above 50 µM in test [2]; 0.2 to 5 µM in test [3] (Homo sapiens, HCC70, 72 h); 0.02 to 0.2 µM in the test with ovarian cancer A2780 (Homo sapiens, A2780, 72 h).
For the molecule `CP(C)(=O)c1cccc2c(-c3nc(NCC4(CO)CC4)ncc3C(F)(F)F)c[nH]c12` [Compound 160], the IC50 is 0.02 to 0.2 µM in test [1]; 5 to 50 µM against CDK2/cyclinE1 complex; above 50 µM on CDK9/cyclinT1 complex; above 50 µM in test [2]; 0.2 to 5 µM in test [3] (Homo sapiens, HCC70, 72 h); 0.2 to 5 µM with ovarian cancer A2780 (Homo sapiens, A2780, 72 h).
With `CP(C)(=O)c1cccc2c(-c3nc(NC4CC45CCNC5)ncc3C(F)(F)F)c[nH]c12` (single isomer, unassigned) [Compound 111], the IC50 in test [1] is 0.02 to 0.2 µM; against CDK2/cyclinE1 complex, 5 to 50 µM; against CDK9/cyclinT1 complex it was above 50 µM; in test [2] it was above 50 µM; in test [3], 0.02 to 0.2 µM; with ovarian cancer A2780 it was below 0.02 µM.
In the case of `FC(F)(F)c1cnc(NC2CCC3CNCC32)nc1-c1c[nH]c2nc(N3CCOCC3)ccc12` (stereo not drawn) [Compound 55, N-(4-(6-morpholinyl-1H-pyrrolo[2,3-b]pyridin-3-yl)-5-(trifluoromethyl)pyrimidin-2-yl)octahydrocyclopenta[c]pyrrol-4-amine], the half-maximal inhibitory concentration (IC50) is 0.02 to 0.2 µM in test [1]; 5 to 50 µM on CDK2/cyclinE1 complex; above 50 µM against CDK9/cyclinT1 complex; above 50 µM in test [2]; 0.2 to 5 µM in test [3] (Homo sapiens, HCC70, 72 h); 0.02 to 0.2 µM with ovarian cancer A2780 (Homo sapiens, A2780, 72 h).
With `C[C@@H]1C[C@H](Nc2ncc(C(F)(F)F)c(-c3c[nH]c4nc(N5CCOCC5)ccc34)n2)CCN1` [Compound 54, N-((2R,4R)-2-methylpiperidin-4-yl)-4-(6-morpholinyl-1H-pyrrolo[2,3-b]pyridin-3-yl)-5-(trifluoromethyl)pyrimidin-2-amine], the IC50 in test [1] was 0.02 to 0.2 µM; against CDK2/cyclinE1 complex, 5 to 50 µM; at CDK9/cyclinT1 complex, above 50 µM; in test [2] it was 5 to 50 µM; in test [3] (Homo sapiens, HCC70, 72 h), 0.2 to 5 µM; in the test with ovarian cancer A2780 (Homo sapiens, A2780, 72 h), 0.2 to 5 µM.
Take `CP(C)(=O)c1cccc2c(-c3nc(N[C@@H]4CCC45CNC5)ncc3C(F)(F)F)c[nH]c12` [Compound 80]: the 50% inhibitory concentration (IC50) in test [1] is below 0.02 µM; against CDK2/cyclinE1 complex, 0.2 to 5 µM; on CDK9/cyclinT1 complex, 5 to 50 µM; in test [2], 5 to 50 µM; in test [3] (Homo sapiens, HCC70, 72 h), below 0.02 µM; with ovarian cancer A2780 (Homo sapiens, A2780, 72 h) it was below 0.02 µM.
Turning to `N#Cc1ccc2c(-c3nc(N[C@H]4CC[C@H](N)C4)ncc3C(F)(F)F)c[nH]c2n1` [Compound 65, 3-(2-(((1S,3S)-3-aminocyclopentyl)amino)-5-(trifluoromethyl)pyrimidin-4-yl)-1H-pyrrolo[2,3-b]pyridine-6-carbonitrile], the concentration for half-maximal inhibition (IC50) was below 0.02 µM in test [1]; 5 to 50 µM against CDK2/cyclinE1 complex; 5 to 50 µM against CDK9/cyclinT1 complex; 5 to 50 µM in test [2]; 0.02 to 0.2 µM in test [3] (Homo sapiens, HCC70, 72 h); 0.02 to 0.2 µM with ovarian cancer A2780 (Homo sapiens, A2780, 72 h).
For `FC(F)(F)c1cnc(NC2CCCNCC2)nc1-c1c[nH]c2nc(N3CCOCC3)ccc12` (stereo not drawn) [Compound 47, N-(4-(6-morpholinyl-1H-pyrrolo[2,3-b]pyridin-3-yl)-5-(trifluoromethyl)pyrimidin-2-yl)azepan-4-amine], the IC50 in test [1] fell in the range of 0.02 to 0.2 µM; against CDK2/cyclinE1 complex, 5 to 50 µM; against CDK9/cyclinT1 complex it was 5 to 50 µM; in test [2], 5 to 50 µM; in test [3] (Homo sapiens, HCC70, 72 h), 0.2 to 5 µM; in the test with ovarian cancer A2780 (Homo sapiens, A2780, 72 h) it was 0.2 to 5 µM.

(Values after patent publication US20240124504A1, “AROMATIC HETEROCYCLIC COMPOUND, AND PHARMACEUTICAL COMPOSITION AND APPLICATION THEREOF” (GT APEIRON THERAPEUTICS LIMITED, priority 2020, published 2024).)
